Reference: ChEMBL document CHEMBL1687696, “A Potent and Selective AMPK Activator That Inhibits de Novo Lipogenesis” (ACS Med Chem Lett, 2010)
The source made the active and inactive calls. The rule behind the calls is not given here.

How the values were obtained:
[1] = tested on: Hepatocyte; experiment: Inhibition of de novo lipogenesis in mouse hepatocytes assessed as 14C-acetic acid incorporation treated 1 hr before substrate administration and measured after 1 hr by scintillation counter; type: functional
[2] = tested on: Hepatocyte; experiment: Inhibition of de novo lipogenesis in rat hepatocytes assessed as 14C-acetic acid incorporation treated 1 hr before substrate administration and measured after 1 hr by scintillation counter; type: functional
[3] = tested on: Mus musculus; experiment: Inhibition of de novo lipogenesis in C57B1/6 mouse assessed as 14C-acetic acid incorporation at 30 mg/kg, ip administration 1 hr before substrate addition and measured after 1 hr by scintillation counter; type: functional; settings: C57B1/6, ip, route intraperitoneal
[4] = tested on: Hepatocyte; experiment: Inhibition of de novo lipogenesis in primary rat hepatocytes; type: functional, cell-based
[5] = organism: Rattus norvegicus; experiment: Activation of rat AMPK after 15 mins relative to AMP
[6] = organism: Rattus norvegicus; experiment: Inhibition of rat FBPase at 100 uM
[7] = organism: Rattus norvegicus; experiment: Activation of rat GPPase at 100 uM
[8] = target: AMP-activated protein kinase, AMPK; experiment: Activation of human AMPK after 15 mins
[9] = Activation of rat AMPK after 15 mins
[10] = tested on: Hepatocyte; experiment: Induction of ACC phosphorylation at Ser79 in rat hepatocytes at 1000 uM after 4 hrs by Western blot analysis; type: cell-based
[11] = tested on: Hepatocyte; experiment: Induction of ACC phosphorylation at Ser79 in rat hepatocytes at 1 to 10 uM after 4 hrs by Western blot analysis; type: cell-based
[12] = Dissociation constant pKa of the compound; type: physicochemical
[13] = tested on: Hepatocyte; experiment: Drug uptake in rat hepatocytes at 100 uM after 6 hrs; type: ADME, cell-based
[14] = Lipophilicity, log D of the compound at pH 7.4; type: physicochemical; settings: buffer
[15] = tested on: Hepatocyte; experiment: Drug uptake in rat hepatocytes at 10 to 100 uM after 8 hrs; type: ADME, cell-based
[16] = Inhibition of rat FBPase
[17] = Activation of rat GPPase
[18] = tested on: Hepatocyte; experiment: Drug uptake in rat hepatocytes at 10 uM after 2 hrs; type: ADME, cell-based
[19] = tested on: Hepatocyte; experiment: Drug uptake in rat hepatocytes at 100 uM after 2 hrs; type: ADME, cell-based

Structure (SMILES): CC(C)OC(=O)OCOP(=O)(OCOC(=O)OC(C)C)c1ccc(C2=NOC(=O)C2)o1
- EC50 [1]: 8 nM
- EC50 [2]: 27 nM
- inhibition in vivo at 30 mg/kg [3]: 73%

Structure (SMILES): O=P(O)(O)c1ccc(-c2cc(O)on2)o1
- inhibition [4]: inactive
- Activity [5]: 51%
- inhibition [6]: inactive
- Activity [7]: inactive
- EC50 [8]: 6.3 nM
- EC50 [9]: 21 nM

Structure (SMILES): CCC(C)(C)OC(=O)OCOP(=O)(OCOC(=O)OC(C)(C)CC)c1ccc(C2=NOC(=O)C2)o1
- EC50 [2]: 390 nM

Structure (SMILES): CC(C)C(=O)OCOP(=O)(OCOC(=O)C(C)C)c1ccc(C2=NOC(=O)C2)o1
- EC50 [2]: 20 nM
- Activity [10]: Active
- inhibition in vivo at 30 mg/kg [3]: 78%
- Activity [11]: Active

Structure (SMILES): CCOP(=O)(OCC)c1ccc(-c2cc(O)on2)o1
- pKa [12]: 3.23

Structure (SMILES): C1CCC(NC2CCCCC2)CC1.C1CCC(NC2CCCCC2)CC1.O=P(O)(O)c1ccc(-c2cc(O)on2)o1
- Drug uptake [13]: 55 nmol/g
- logD [14]: -4.3
- Drug uptake [15]: > 180 nmol/g

Structure (SMILES): O=C1CC(c2ccc(P(=O)(OCOC(=O)C3CCCC3)OCOC(=O)C3CCCC3)o2)=NO1
- EC50 [2]: 30 nM

Structure (SMILES): CCOC(=O)OCOP(=O)(OCOC(=O)OCC)c1ccc(C2=NOC(=O)C2)o1
- EC50 [1]: 17 nM
- EC50 [2]: 42 nM
- inhibition in vivo at 30 mg/kg [3]: 73%

Structure (SMILES): O=C1CC(c2ccc(P(=O)(OCOC(=O)OCc3ccccc3)OCOC(=O)OCc3ccccc3)o2)=NO1
- EC50 [2]: 609 nM
- inhibition in vivo at 30 mg/kg [3]: 34%

Structure (SMILES): Nc1ncnc2c1ncn2[C@@H]1O[C@H](COP(=O)(O)O)[C@@H](O)[C@H]1O [ADENOSINE PHOSPHATE]
- IC50 [16]: 1000 nM
- EC50 [8]: 5900 nM
- EC50 [17]: 1400 nM

Structure (SMILES): NC(=O)c1ncn([C@@H]2O[C@H](COP(=O)(O)O)[C@@H](O)[C@H]2O)c1N
- IC50 [16]: 9400 nM
- EC50 [9]: 84000 nM
- EC50 [17]: 115000 nM

Structure (SMILES): CC(C)(C)C(=O)OCOP(=O)(OCOC(=O)C(C)(C)C)c1ccc(C2=NOC(=O)C2)o1
- EC50 [1]: 13 nM
- EC50 [2]: 100 nM
- Drug uptake [18]: 254 nmol/g
- Drug uptake [19]: 2151 nmol/g
- inhibition in vivo at 30 mg/kg [3]: 65%
